Data from patent US10428044B2, “3-amino-1,5,6,7-tetrahydro-4H-indol-4-ones” (Bayer Pharma Aktiengesellschaft, priority 2014, dated 2019).

Biological target: (recombinant) catalytic domain of human Bub1 (amino acids 704-1085) (Homo sapiens (Human), UniProt O43683)
Assay: Bub1 kinase assay (TR-FRET)
Format: biochemical
Settings: ATP 10 μM final, peptide substrate 1 μM final, 60 min at 22° C., read-out: Biological Assay: Bub1 kinase assay median IC50
Summary of the method: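 Compounds were serially diluted 1:3.4 from 2 mM DMSO stocks and incubated with the enzyme reaction for 60 min at 22° C. The reaction was stopped with EDTA, and biotinylated peptide phosphorylation was read by TR-FRET using Eu anti-mouse IgG, anti-phosphoserine antibody and streptavidin-XL665. IC50 was fitted by 4-parameter logistic to inhibition normalized to no-inhibitor and no-enzyme controls.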

Chain of (recombinant) catalytic domain of human Bub1 (amino acids 704-1085) (O43683 704-1085): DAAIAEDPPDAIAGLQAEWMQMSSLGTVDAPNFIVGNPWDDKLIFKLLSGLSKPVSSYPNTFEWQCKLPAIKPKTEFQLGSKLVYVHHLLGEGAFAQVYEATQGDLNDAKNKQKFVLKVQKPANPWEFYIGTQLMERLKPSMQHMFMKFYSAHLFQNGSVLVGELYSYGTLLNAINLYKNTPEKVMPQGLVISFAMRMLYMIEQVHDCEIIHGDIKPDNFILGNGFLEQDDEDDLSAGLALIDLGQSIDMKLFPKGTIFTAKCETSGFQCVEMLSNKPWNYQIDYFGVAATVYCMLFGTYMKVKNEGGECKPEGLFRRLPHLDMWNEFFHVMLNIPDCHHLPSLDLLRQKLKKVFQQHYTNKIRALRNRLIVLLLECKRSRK

| IC50 | Structure (SMILES) |
| --- | --- |
| 26.4 nM | CC(C)C1CC(=O)c2c([nH]c(-c3ccnc(NC(=O)C4CC4)c3)c2Nc2ccc(F)c(F)c2)C1 (centres unmarked) [Example 324, N-{4-[3-[(3,4-difluorophenyl)amino]-4-oxo-6-(propan-2-yl)-4,5,6,7-tetrahydro-1H-indol-2-yl]pyridin-2-yl}cyclopropanecarboxamide] |
| 5460 nM | CC(C)c1ccc(Nc2c(-c3ccncc3)[nH]c3c2C(=O)CC(C)(C)C3)cc1 [Example 86, 6,6-dimethyl-3-{[4-(propan-2-yl)phenyl]amino}-2-(pyridin-4-yl)-1,5,6,7-tetrahydro-4H-indol-4-one] |
| 43.7 nM | CC1(C)CC(=O)c2c([nH]c(-c3ccncc3)c2Nc2ccc(F)c(Cl)c2)C1 [Example 95, 3-[(3-chloro-4-fluorophenyl)amino]-6,6-dimethyl-2-(pyridin-4-yl)-1,5,6,7-tetrahydro-4H-indol-4-one] |
| 19.4 nM | O=C1CCCc2[nH]c(-c3ccnc(NC(=O)C4CCC4)c3)c(Nc3ccccc3)c21 [Example 229, N-{4-[4-oxo-3-(phenylamino)-4,5,6,7-tetrahydro-1H-indol-2-yl]pyridin-2-yl}cyclobutanecarboxamide] |
| 208 nM | CC1(C)CC(=O)c2c([nH]c(-c3ccnc(NC4CCC4)c3)c2Nc2ccccc2)C1 [Example 359, 2-[2-(cyclobutylamino)pyridin-4-yl]-6,6-dimethyl-3-(phenylamino)-1,5,6,7-tetrahydro-4H-indol-4-one] |
| 22.9 nM | O=C(COc1ccccc1)Nc1cc(-c2[nH]c3c(c2Nc2ccccc2)C(=O)CCC3)ccn1 [Example 337, N-{4-[4-oxo-3-(phenylamino)-4,5,6,7-tetrahydro-1H-indol-2-yl]pyridin-2-yl}-2-phenoxyacetamide] |
| 233 nM | CCNC(=S)Nc1cc(-c2[nH]c3c(c2Nc2ccccc2)C(=O)CCC3)ccn1 [Example 393, 1-ethyl-3-{4-[4-oxo-3-(phenylamino)-4,5,6,7-tetrahydro-1H-indol-2-yl]pyridin-2-yl}thiourea] |
| 4270 nM | COc1ccc(OC)c(Nc2c(-c3ccncc3)[nH]c3c2C(=O)CC(C)(C)C3)c1 [Example 76, 3-[(2,5-dimethoxyphenyl)amino]-6,6-dimethyl-2-(pyridin-4-yl)-1,5,6,7-tetrahydro-4H-indol-4-one] |
| 127 nM | CCc1ccccc1Nc1c(-c2ccncc2)[nH]c2c1C(=O)CC(C)(C)C2 [Example 84, 3-[(2-ethylphenyl)amino]-6,6-dimethyl-2-(pyridin-4-yl)-1,5,6,7-tetrahydro-4H-indol-4-one] |
| 95.2 nM | CC1(C)CC(=O)c2c([nH]c(-c3ccncc3)c2Nc2ccccc2F)C1 [Example 60, 3-[(2-fluorophenyl)amino]-6,6-dimethyl-2-(pyridin-4-yl)-1,5,6,7-tetrahydro-4H-indol-4-one] |
| 6.63 nM | CC1(C)CC(=O)c2c([nH]c(-c3ccnc(NC(=O)c4cscn4)c3)c2Nc2ccccc2)C1 [Example 272, N-{4-[6,6-dimethyl-4-oxo-3-(phenylamino)-4,5,6,7-tetrahydro-1H-indol-2-yl]pyridin-2-yl}-1,3-thiazole-4-carboxamide] |
| 9.88 nM | Cc1cc(OCC(=O)Nc2cc(-c3[nH]c4c(c3Nc3ccccc3)C(=O)CCC4)ccn2)no1 [Example 346, 2-[(5-methyl-1,2-oxazol-3-yl)oxy]-N-{4-[4-oxo-3-(phenylamino)-4,5,6,7-tetrahydro-1H-indol-2-yl]pyridin-2-yl}acetamide] |
| 9.73 nM | Nc1cc(-c2[nH]c3c(c2Nc2ccccc2)C(=O)CC2(CC2)C3)ccn1 [Example 206, 2′-(2-aminopyridin-4-yl)-3′-(phenylamino)-1′,7′-dihydrospiro[cyclopropane-1,6′-indol]-4′(5′H)-one] |
| 10.3 nM | O=C(Nc1cc(-c2[nH]c3c(c2Nc2ccccc2)C(=O)CCC3)ccn1)c1ccns1 [Example 280, N-{4-[4-oxo-3-(phenylamino)-4,5,6,7-tetrahydro-1H-indol-2-yl]pyridin-2-yl}-1,2-thiazole-5-carboxamide] |
| 28.2 nM | CS(=O)(=O)CC(=O)Nc1cc(-c2[nH]c3c(c2Nc2ccccc2)C(=O)CCC3)ccn1 [Example 248, 2-(methylsulfonyl)-N-{4-[4-oxo-3-(phenylamino)-4,5,6,7-tetrahydro-1H-indol-2-yl]pyridin-2-yl}acetamide] |
| 6.3 nM | CC1(C)CC(=O)c2c([nH]c(-c3ccnc(NC(=O)c4cncs4)c3)c2Nc2ccccc2)C1 [Example 480, N-{4-[6,6-dimethyl-4-oxo-3-(phenylamino)-4,5,6,7-tetrahydro-1H-indol-2-yl]pyridin-2-yl}-1,3-thiazole-5-carboxamide] |
| 689 nM | CC1(C)CC(=O)c2c([nH]c(-c3ccncc3)c2Nc2ccccc2Cc2ccccc2)C1 [Example 416, 3-[(2-benzylphenyl)amino]-6,6-dimethyl-2-(pyridin-4-yl)-1,5,6,7-tetrahydro-4H-indol-4-one] |
| 84.4 nM | CC(C)(C#N)C(=O)Nc1cc(-c2[nH]c3c(c2Nc2ccccc2)C(=O)CCC3)ccn1 [Example 245, 2-cyano-2-methyl-N-{4-[4-oxo-3-(phenylamino)-4,5,6,7-tetrahydro-1H-indol-2-yl]pyridin-2-yl}propanamide] |

| IC50 | Structure (SMILES) |
| --- | --- |
| 18.9 nM | O=C(Nc1cc(-c2[nH]c3c(c2Nc2ccccc2)C(=O)CCC3)ccn1)c1nnn[nH]1 [Example 283, N-{4-[4-oxo-3-(phenylamino)-4,5,6,7-tetrahydro-1H-indol-2-yl]pyridin-2-yl}-1H-tetrazole-5-carboxamide] |
| 101 nM | CC(=O)Nc1cc(-c2[nH]c3c(c2Nc2ccc(F)c(F)c2)C(=O)CCC3)ccn1 [Example 315, N-(4-{3-[(3,4-difluorophenyl)amino]-4-oxo-4,5,6,7-tetrahydro-1H-indol-2-yl}pyridin-2-yl)acetamide] |
| 2210 nM | CNC(=O)c1cccc(Nc2c(-c3ccncc3)[nH]c3c2C(=O)CC(C)(C)C3)c1 [Example 99, 3-{[6,6-dimethyl-4-oxo-2-(pyridin-4-yl)-4,5,6,7-tetrahydro-1H-indol-3-yl]amino}-N-methylbenzamide] |
| 8.63 nM | COc1cc(C(=O)Nc2cc(-c3[nH]c4c(c3Nc3ccccc3)C(=O)CC(C)(C)C4)ccn2)ccc1F [Example 474, N-{4-[6,6-dimethyl-4-oxo-3-(phenylamino)-4,5,6,7-tetrahydro-1H-indol-2-yl]pyridin-2-yl}-4-fluoro-3-methoxybenzamide] |
| 17 nM | O=C1CCCc2[nH]c(-c3ccnc(F)c3)c(Nc3ccccc3)c21 [Example 44, 2-(2-fluoropyridin-4-yl)-3-(phenylamino)-1,5,6,7-tetrahydro-4H-indol-4-one] |
| 18.2 nM | O=C(COc1ccc(F)cc1)Nc1cc(-c2[nH]c3c(c2Nc2ccccc2)C(=O)CCC3)ccn1 [Example 462, N-[4-(3-anilino-4-oxo-4,5,6,7-tetrahydro-1H-indol-2-yl)pyridin-2-yl]-2-(4-fluorophenoxy)acetamide] |
| 32.6 nM | O=C1CCCc2[nH]c(-c3ccnc(NC(=O)C4CC4C(F)(F)F)c3)c(Nc3ccccc3)c21 (racemic) [Example 262, N-{4-[4-oxo-3-(phenylamino)-4,5,6,7-tetrahydro-1H-indol-2-yl]pyridin-2-yl}-2-(trifluoromethyl)cyclopropanecarboxamide] |
| 6.24 nM | COc1ccc(Cn2cc(C(=O)Nc3cc(-c4[nH]c5c(c4Nc4ccccc4)C(=O)CCC5)ccn3)cn2)cc1 [Example 450, 1-(4-methoxybenzyl)-N-{4-[4-oxo-3-(phenylamino)-4,5,6,7-tetrahydro-1H-indol-2-yl]pyridin-2-yl}-1H-pyrazole-4-carboxamide] |
| 38.9 nM | CSCCNC(=O)Nc1cc(-c2[nH]c3c(c2Nc2ccccc2)C(=O)CCC3)ccn1 [Example 389, 1-[2-(methylsulfanyl)ethyl]-3-{4-[4-oxo-3-(phenylamino)-4,5,6,7-tetrahydro-1H-indol-2-yl]pyridin-2-yl}urea] |
| 10 nM | COc1cc(C(=O)Nc2cc(-c3[nH]c4c(c3Nc3ccccc3)C(=O)CCC4)ccn2)ccc1F [Example 453, 4-fluoro-3-methoxy-N-{4-[4-oxo-3-(phenylamino)-4,5,6,7-tetrahydro-1H-indol-2-yl]pyridin-2-yl}benzamide] |
| 4.61 nM | CC(=O)Nc1cc(-c2[nH]c3c(c2Nc2ccccc2)C(=O)CC(CCl)C3)ccn1 (centres unmarked) [Example 444, N-{4-[6-(chloromethyl)-4-oxo-3-(phenylamino)-4,5,6,7-tetrahydro-1H-indol-2-yl]pyridin-2-yl}acetamide] |
| 19900 nM | CC1(C)CC(=O)c2c([nH]c(-c3ccncc3)c2Nc2ccc3nc[nH]c3c2)C1 [Example 73, 3-(1H-benzimidazol-6-ylamino)-6,6-dimethyl-2-(pyridin-4-yl)-1,5,6,7-tetrahydro-4H-indol-4-one] |
| 13.7 nM | O=C(Cc1ccc[nH]1)Nc1cc(-c2[nH]c3c(c2Nc2ccccc2)C(=O)CCC3)ccn1 [Example 284, N-{4-[4-oxo-3-(phenylamino)-4,5,6,7-tetrahydro-1H-indol-2-yl]pyridin-2-yl}-2-(1H-pyrrol-2-yl)acetamide] |
| 49.7 nM | O=C1CCCc2[nH]c(-c3ccncc3)c(Nc3ccc(F)c(F)c3)c21 [Example 134, 3-[(3,4-difluorophenyl)amino]-2-(pyridin-4-yl)-1,5,6,7-tetrahydro-4H-indol-4-one] |
| 449 nM | CC1(C)CC(=O)c2c([nH]c(-c3ccnnc3)c2Nc2ccccc2)C1 [Example 55, 6,6-dimethyl-3-(phenylamino)-2-(pyridazin-4-yl)-1,5,6,7-tetrahydro-4H-indol-4-one] |
| 174 nM | CN[C@@H](C)C(=O)Nc1cc(-c2[nH]c3c(c2Nc2ccccc2)C(=O)CCC3)ccn1 [Example 304, N^2-methyl-N-{4-[4-oxo-3-(phenylamino)-4,5,6,7-tetrahydro-1H-indol-2-yl]pyridin-2-yl}-L-alaninamide] |
| 40.7 nM | CC(F)C(=O)Nc1cc(-c2[nH]c3c(c2Nc2ccccc2)C(=O)CCC3)ccn1 (centres unmarked) [Example 241, 2-fluoro-N-{4-[4-oxo-3-(phenylamino)-4,5,6,7-tetrahydro-1H-indol-2-yl]pyridin-2-yl}propanamide] |
